Test results: paper PMC7247319, “The mitochondria-targeted peptide SS-31 binds lipid bilayers and modulates surface electrostatics as a key component of its mechanism of action” (The Journal of Biological Chemistry, 2020)
Where a SMILES comes first, the peptide text is derived from it. [ ]: non-standard residue; d: D form. Dmt = Cc1cc(O)cc(C)c1C[C@H](N)C(=O)O

Test system: LUVs with 20% TOCL
Experiment: CG-5N assay of Ca2+ accumulation at model membrane interface
Details: peptide titrated into LUVs with 20% TOCL prebound with Ca2+
Description: Figure 7. SS peptide effects on Ca^2+-membrane interactions and mitochondrial cation stress. A, profiles of surface potential decay (top) and ion distribution (bottom) based on GCS theory in the presence or absence of SS-31 (see supporting Results H for model description). B, effect of SS peptides on Ca^2+ accumulation at model membrane interfaces. […] C and D, effect of SS peptides on mitochondrial Ca^2+ uptake. C, time courses of TMRM or CG-5N emission in mitochondrial suspensions with ETH-129 in the absence (top) or presence (bottom) of SS-31 following the addition of NADH (black arrowheads) and CaCl2 (open arrowheads). See Fig. S18A for experimental details. […] Spectral deconvolution yielded the indicated components (see Fig. S19, A and B), which were used to quantify the area ratios of L2/iso in F (values shown are means ± S.D. (error bars) (n = 3). G, respirometry analysis. Mitochondria (1 mg ml^−1) were treated in the absence or presence of SS-31 (54.4 μM) or CaCl2 (1 mM) as indicated and measured for state 2 respiration (n = 10–12 each).
First, we measured the effects of SS peptides on the accumulation of Ca^2+ in the interfacial region of model membranes. […] We reasoned that the binding of Ca^2+ to the headgroup region of anionic lipid bilayers would reduce the bulk Ca^2+ detected by the CG-5N probe, providing a direct readout of Ca^2+ accumulation at the membrane interface. […]

Cc1cc(O)cc(C)c1C[C@H](NC(=O)[C@H](N)CCCNC(=N)N)C(=O)N[C@@H](CCCCN)C(=O)N[C@@H](Cc1ccccc1)C(N)=O [SS-31, D-Arg-2′6′-dimethyl-Tyr-Lys-Phe-NH2] (H-[dR][Dmt]KF-NH2)
release of Ca2+ from membrane interface (CG-5N response): released Ca^2+ from the membrane interface in a dose-dependent manner
